Measurements as given in patent publication US9844546B2, “Antibody against human HIF hydroxylase” (OXFORD UNIVERSITY INNOVATION LIMITED, priority 2001, dated 2017).
“Also recorded” adds a separate entry of the source.

Test system: pVHL
Test: pVHL capture assay using biotinylated synthetic polypeptides
Type: binding, human
Settings: wild type or mutant (Pro86His) pVHL; with or without cell extract
Procedure: We synthesized a polypeptide (HIF-1α residues 556-574), containing a trans-4-hydroxy-S-proline residue at position 564 (19:Pro564Hyp), since the trans-4-hydroxylation is the commonest enzymatic proline oxidation (25). A polypeptide blocking assay was carried out using the 19:Pro564Hyp modified polypeptide and, as a control, the unmodified polypeptide without the trans-4-hydroxylation (19:WT). The 19:WT polypeptide was either incubated with cell extract before the binding assay or was untreated. The 19:Pro564Hyp polypeptide was added to a mixture of HIF-1α and pVHL-HA IVTTs at a concentration of 1, 0.25, 0.05 or 0.01 μM and the cell extract treated or untreated 19:WT polypeptide at a concentration of 0.5 μM. Interaction of HIF-1α with pVHL was then assayed by anti-HA immunoprecipitation. […] A pVHL capture assay was then carried out using biotinylated synthetic polypeptides. The same polypeptides, 19:Pro564Hyp and 19:WT were assessed for the ability to capture wild type or mutant (Pro86His) pVHL. […] In both cases capture was specific for wild type, as opposed to mutant, pVHL.
• 1. G. L. Semenza, Genes Dev 14, 1983-91. (2000). • 2. N. V. Iyer, et al., Genes Dev. 12, 149-162 (1997). • 3. E. Maltepe, J. V. Schmidt, D. Baunoch, C. A. Bradfield, M. C. Simon, Nature 386, 403-407 (1997). • 4. G. L. Wang, B.-H. Jiang, E. A. Rue, G. L. Semenza, Proc. Natl. Acad. Sci. USA 92, 5510-5514 (1995). • 5. […]

Substance: 19:Pro564Hyp: polypeptide (HIF-1α residues 556-574) containing a trans-4-hydroxy-S-proline residue at position 564
- capture of pVHL by biotinylated polypeptide: captured wild type pVHL without pre-treatment; also recorded: specifically captured wild type but not mutant pVHL

Substance: 19:WT: polypeptide comprising HIF-1α residues 556 to 574
- capture of pVHL by biotinylated polypeptide: captured pVHL only after incubation with cell extract; also recorded: could not interact without prior incubation with cell extract
